Measured values published in EP4567103A1, “USE OF PYRUVATE FOR POTENTIATING NK CELLS” (LVMH Recherche, priority 2023, dated 2025).

Assays:
NK cells [1] = assay: Intracellular ATP concentration in NK cells, luciferase-based assay (CellTiter-Glo 2.0); assay type: cell-based; conditions: Homo sapiens; isolated NK cells, 30,000 cells per well, pyruvate 0.01 to 10mM, 4 hours; read-out: EC50 for the intracellular ATP production (the pyruvate concentration at which the ATP production is half-maximal)
Experimental: (§1) Peripheral blood samples from healthy subjects were obtained from the French blood bank (Etablissement Français du sang, Lyon, France).
(§2) Human PBMCs were separated from peripheral blood by Ficoll® gradient centrifugation (Eurobio Laboratoires & AbCys) at room temperature. The PBMCs were kept at 4°C in complete medium overnight.
NK cells (CD56^Dim CD3) were isolated using an NK Cell Isolation Kit (Miltenyi Biotec) following the manufacturer's instructions, and then sorted (BD FACS ARIA II, purity > 99%, the following mAbs from eBioscience, BD Biosciences, Biolegend or Cell Signalling Technology were used: anti-CD56 (NCAM16.2), and anti-CD3 (UCHT1)). Freshly sorted NK cells were left to recover from the sorting overnight at 37°C with a non-activating dose of IL-15 (1 ng/ml, Peprotech) in RPMI 1640 medium additionally containing 10% FBS, 2mM HEPES, 2mM glutamine, 1mM pyruvate (sodium pyruvate) and 1% penicillin/streptomycin (HCL Technologies). […]
The intracellular ATP concentration at each concentration of pyruvate was measured using a luciferase-based assay following the manufacturer's instructions (CellTiter-Glo® 2.0 Cell Viability Assay and NAD/NADH-Glo Assay, Promega Corporation, Madison, WI). Luminescence was measured using a Tristar luminometer (Berthold).

NK cells [2] = assay: Cytotoxicity of NK cells against K562 NanoLuc-expressing target cells (bioluminescence lysis assay); assay type: cell-based; conditions: Homo sapiens; pyruvate 0.01 to 10 mM for 3 hours, then co-cultured for 4 hours with K562 NanoLuc-expressing target cells; read-out: EC50 for the cytotoxicity of the NK cells (the pyruvate concentration at which the cytotoxicity is half-maximal)
Experimental: as §1, §2
NK cells (CD56^Dim CD3) were isolated using an NK Cell Isolation Kit (Miltenyi Biotec) following the manufacturer's instructions, and then sorted (BD FACS ARIA II, purity > 99%, the following mAbs from eBioscience, BD Biosciences, Biolegend or Cell Signalling Technology were used: anti-CD56 (NCAM16.2), and anti-CD3 (UCHT1)). […]
NK cells were prepared as in Example 1, and were cultured in the absence or in the presence of pyruvate at varying concentrations (0.01 to 10 mM) for 3 hours and then co-cultured for 4 hours with K562 NanoLuc®-expressing target cells. The supernatant was collected and bioluminescence was measured using a Tristar Instrument luminometer (Berthold) after addition of Furimazin (the substrate of NanoLuc). The percentage of cell lysis were calculated as explained in Hayek, S. et al., SLAS Discov. […]

Question: For `CC(=O)C(=O)O` [pyruvate], which EC50 (NK cells [1]) is on record?
Answer: 500 µM

Question: And the EC50 (NK cells [2])?
Answer: 260 µM
